Values after ≈ are worked out from the molar mass of the structure shown.

In the assay the test system is Mycobacterium tuberculosis H37Rv strains. Description: In vitro assay for antimicrobial susceptibility (microplate Alamar blue MIC). The class given is cell-based. To be noted: Mycobacterium tuberculosis, H37RV, in vitro, Mycobacterium tuberculosis H37Rv strains; read-out: MIC (μg/mL) against H37Rv. A general note: Resazurin is reduced to fluorescent resorufin, in cell work by metabolically active cells.
With `Cc1ccc(Nc2cc3nc4cc(F)ccc4n(-c4ccc(OC(F)(F)F)cc4)c-3c/c2=N\C2CCCCC2)cn1` [TBI-865, 8-Fluoro-5-(4-trifluoromethoxyphenyl)-3-cyclohexylimino-2-(6-methyl-3-pyridyl)amino-3,5-dihydrophenazine], the MIC was 0.031 µg/mL (≈ 0.0552 µM).

For the compound `COC1CCC(/N=c2\cc3n(-c4ccc(OC(F)(F)F)cc4)c4ccc(F)cc4nc-3cc2Nc2ccc(C)nc2)CC1` (centres unmarked) [TBI-866, 8-Fluoro-5-(4-trifluoromethoxyphenyl)-3-(4-methoxycyclohexyl)imino-2-(6-methyl-3-pyridyl)amino-3,5-dihydrophenazine], the MIC was found to be 0.027 µg/mL (≈ 0.0456 µM).

As for `COc1ccc2nc3cc(Nc4ccc(C)nc4)/c(=N/C4CCC(OC)CC4)cc-3n(-c3ccc(Cl)cc3)c2c1` (centres unmarked) [TBI-867, 7-Methoxy-5-(4-chlorophenyl)-3-(4-methoxycyclohexyl)imino-2-(6-methyl-3-pyridyl-amino)-3,5-dihydrophenazine], the MIC worked out at 0.058 µg/mL (≈ 0.105 µM).

For the compound `COc1ccc2nc3cc(Nc4ccc(C)nc4)/c(=N/C4CC4)cc-3n(-c3ccc(Cl)cc3)c2c1` [TBI-868, 7-Methoxy-5-(4-chlorophenyl)-3-cyclopropylimino-2-(6-methyl-3-pyridyl)amino-3,5-dihydrophenazine], the MIC is 0.028 µg/mL (≈ 0.0581 µM).

With `COc1ccc2nc3cc(Nc4ccc(C)nc4)/c(=N/C4CCCCC4)cc-3n(-c3ccc(Cl)cc3)c2c1` [TBI-869, 7-Methoxy-5-(4-chlorophenyl)-3-cyclohexylimino-2-(6-methyl-3-pyridyl)amino-3,5-dihydrophenazine], the MIC stood at 0.056 µg/mL (≈ 0.107 µM).

Turning to `COc1ncccc1Nc1cc2nc3ccccc3n(-c3ccccc3Cl)c-2c/c1=N\C1CCOCC1` [TBI-870], the MIC was determined as 0.084 µg/mL (≈ 0.164 µM).

For the compound `COCC(COC)/N=c1\cc2n(-c3ccc(Cl)cc3)c3ccccc3nc-2cc1Nc1cccnc1OC` [TBI-871, 5-(4-Chlorophenyl)-3-(1,3-dimethoxyisopropyl)imino-2-(2-methoxy-3-pyridyl)amino-3,5-dihydrophenazine], the MIC was 0.03 µg/mL (≈ 0.0566 µM).

In the case of `COCC(C/N=c1\cc2n(-c3ccc(Cl)cc3)c3ccccc3nc-2cc1Nc1cccnc1OC)OC` (centres unmarked) [TBI-872, 5-(4-Chlorophenyl)-3-(2,3-dimethoxy-1-propyl)imino-2-(2-methoxy-3-pyridyl)amino-3,5-dihydrophenazine], the MIC came to 0.06 µg/mL (≈ 0.113 µM).

In the case of `Cc1ccc(Nc2cc3nc4cc(F)ccc4n(-c4ccc(Cl)c(Cl)c4)c-3c/c2=N\C2CCOCC2)cn1` [TBI-873, 8-Fluoro-5-(3,4-dichlorophenyl)-3-(4-tetrahydropyranyl)imino-2-(6-methyl-3-pyridyl)amino-3,5-dihydrophenazine], the MIC came out at 0.076 µg/mL (≈ 0.139 µM).

`COc1ncccc1Nc1cc2nc3cc(F)ccc3n(-c3ccc(Cl)c(Cl)c3)c-2c/c1=N\C(C)C` [TBI-874, 8-Fluoro-5-(3,4-dichlorophenyl)-3-(1-methylethyl)imino-2-(2-methoxy-3-pyridyl)amino-3,5-dihydrophenazine]: the MIC was 0.129 µg/mL (≈ 0.247 µM).

Regarding `COc1ncccc1Nc1cc2nc3cc(F)ccc3n(-c3ccc(Cl)c(Cl)c3)c-2c/c1=N\C1CC1` [TBI-875, 8-Fluoro-5-(3,4-dichlorophenyl)-3-cyclopropylimino-2-(2-methoxy-3-pyridyl)amino-3,5-dihydrophenazine], the MIC is 0.047 µg/mL (≈ 0.0903 µM).

For the compound `COc1ncccc1Nc1cc2nc3cc(F)ccc3n(-c3ccc(Cl)c(Cl)c3)c-2c/c1=N\C1CCOCC1` [TBI-877, 8-Fluoro-5-(3,4-dichlorophenyl)-3-(4-tetrahydropyranyl)imino-2-(2-methoxy-3-pyridyl)amino-3,5-dihydrophenazine], the MIC amounted to 0.091 µg/mL (≈ 0.161 µM).

`COC1CCC(/N=c2\cc3n(-c4ccc(Cl)c(Cl)c4)c4ccc(F)cc4nc-3cc2Nc2ccc(C)nc2)CC1` (centres unmarked) [TBI-878, 8-Fluoro-5-(3,4-dichlorophenyl)-3-(4-methoxycyclohexyl)imino-2-(6-methyl-3-pyridinyl)amino-3,5-dihydrophenazine]: the MIC came out at 0.029 µg/mL (≈ 0.0503 µM).

`COc1ncccc1Nc1cc2nc3cc(F)ccc3n(-c3ccc(Cl)c(Cl)c3)c-2c/c1=N\C1CCC(OC)CC1` (centres unmarked) [TBI-879, 8-Fluoro-5-(3,4-dichlorophenyl)-3-(4-methoxycyclohexyl)imino-2-(2-methoxy-3-pyridyl)amino-3,5-dihydrophenazine]: the MIC is 0.109 µg/mL (≈ 0.184 µM).

Take `Clc1ccc(-n2c3c/c(=N\C4CCOCC4)c(Nc4cncc(Br)c4)cc-3nc3ccccc32)cc1` [TBI-880, 5-(4-Chlorophenyl)-3-(4-tetrahydropyranyl)imino-2-(5-bromo-3-pyridyl)amino-3,5-dihydrophenazine]: the MIC turned out to be 0.036 µg/mL (≈ 0.0642 µM).

As to `CO[C@H]1CC[C@H](/N=c2\cc3n(-c4ccc(Cl)cc4)c4ccccc4nc-3cc2Nc2cncc(Br)c2)CC1` [TBI-881, 5-(4-Chlorophenyl)-3-(1′,4′-trans-4-methoxycyclohexyl)imino-2-(5-bromo-3-pyridyl)amino-3,5-dihydrophenazine], the MIC was 0.052 µg/mL (≈ 0.0883 µM).

For `Clc1ccc(-n2c3c/c(=N\C4CC4)c(Nc4cncc(Br)c4)cc-3nc3ccccc32)cc1` [TBI-882, 5-(4-Chlorophenyl)-3-cyclopropylimino-2-(5-bromo-3-pyridyl)amino-3,5-dihydrophenazine], the MIC amounted to 0.015 µg/mL (≈ 0.029 µM).

As to `Clc1ccc(-n2c3c/c(=N\C4CCC4)c(Nc4cncc(Br)c4)cc-3nc3ccccc32)cc1` [TBI-883, 5-(4-Chlorophenyl)-3-cyclobutylimino-2-(5-bromo-3-pyridyl)amino-3,5-dihydrophenazine], the MIC came to 0.03 µg/mL (≈ 0.0565 µM).

For the compound `COc1ncccc1Nc1cc2nc3ccc(F)cc3n(-c3ccc(Cl)c(Cl)c3)c-2c/c1=N\C1CCOCC1` [TBI-884, 7-Fluoro-5-(3,4-dichlorophenyl)-3-(4-tetrahydropyranyl)imino-2-(2-methoxy-3-pyridyl)amino-3,5-dihydrophenazine], the MIC was 0.5 µg/mL (≈ 0.886 µM).

Turning to `COc1ncccc1Nc1cc2nc3ccc(F)cc3n(-c3ccc(Cl)c(Cl)c3)c-2c/c1=N\C1CC1` [TBI-885, 7-Fluoro-5-(3,4-dichlorophenyl)-3-cyclopropylimino-2-(2-methoxy-3-pyridyl)amino-3,5-dihydrophenazine], the MIC turned out to be 0.06 µg/mL (≈ 0.115 µM).

Turning to `COc1ncccc1Nc1cc2nc3ccc(F)cc3n(-c3ccc(Cl)c(Cl)c3)c-2c/c1=N\C1CCC1` [TBI-886, 7-Fluoro-5-(3,4-dichlorophenyl)-3-cyclobutylimino-2-(2-methoxy-3-pyridyl)amino-3,5-dihydrophenazine], the MIC worked out at 0.06 µg/mL (≈ 0.112 µM).

For the compound `Cc1ccc(Nc2cc3nc4cc(F)ccc4n(-c4ccc(Cl)c(Cl)c4)c-3c/c2=N\C(C)C)cn1` [TBI-887, 8-Fluoro-5-(3,4-dichlorophenyl)-3-(1-methylethyl)imino-2-(6-methyl-3-pyridyl)amino-3,5-dihydrophenazine], the MIC worked out at 0.062 µg/mL (≈ 0.122 µM).

On to `Cc1ccc(Nc2cc3nc4cc(F)ccc4n(-c4ccc(Cl)c(Cl)c4)c-3c/c2=N\C2CC2)cn1` [TBI-888], for which the MIC was 0.028 µg/mL (≈ 0.0555 µM).

Regarding `CC(C)/N=c1\cc2n(-c3ccccc3Cl)c3ccccc3nc-2cc1Nc1cccnc1` [TBI-890, 5-(2-Chlorophenyl)-3-(1-methylethyl)imino-2-(3-pyridyl)amino-3,5-dihydrophenazine], the MIC amounted to 0.476 µg/mL (≈ 1.08 µM).

On to `Clc1ccccc1-n1c2c/c(=N\C3CCCCC3)c(Nc3cccnc3)cc-2nc2ccccc21` [TBI-891, 5-(2-Chlorophenyl)-3-cyclohexylimino-2-(3-pyridyl)amino-3,5-dihydrophenazine], for which the MIC is 0.036 µg/mL (≈ 0.075 µM).

Consider `Clc1ccccc1-n1c2c/c(=N\C3CC3)c(Nc3cccnc3)cc-2nc2ccccc21` [TBI-892, 5-(2-Chlorophenyl)-3-cyclopropylimino-2-(3-pyridyl)amino-3,5-dihydrophenazine], for which the MIC was 0.028 µg/mL (≈ 0.0639 µM).

In the case of `COc1ncccc1Nc1cc2nc3ccccc3n(-c3ccc(Cl)cc3Cl)c-2c/c1=N\C1CCC1` [TBI-893, 5-(2,4-Dichlorophenyl)-3-cyclobutylimino-2-(2-methoxy-3-pyridyl)amino-3,5-dihydrophenazine], the MIC stood at 0.06 µg/mL (≈ 0.116 µM).

In the case of `COc1ccc2nc3cc(Nc4cccnc4OC)/c(=N/C4CC4)cc-3n(-c3ccc(Cl)cc3)c2c1` [TBI-894, 7-Methoxy-5-(4-chlorophenyl)-3-cyclopropylimino-2-(2-methoxy-3-pyridyl)amino-3,5-dihydrophenazine], the MIC worked out at 0.06 µg/mL (≈ 0.12 µM).

On to `COc1ccc2nc3cc(Nc4cccnc4OC)/c(=N/C4CCC4)cc-3n(-c3ccc(Cl)cc3)c2c1` [TBI-895, 7-Methoxy-5-(4-chlorophenyl)-3-cyclobutylimino-2-(2-methoxy-3-pyridyl)amino-3,5-dihydrophenazine], for which the MIC was 0.125 µg/mL (≈ 0.244 µM).

On to `Cc1ccc(Nc2cc3nc4ccc(F)cc4n(-c4ccc(Cl)c(Cl)c4)c-3c/c2=N\C(C)C)cn1` [TBI-896, 7-Fluoro-5-(3,4-dichlorophenyl)-3-(1-methylethyl)imino-2-(6-methyl-3-pyridyl)amino-3,5-dihydrophenazine], for which the MIC came out at 0.25 µg/mL (≈ 0.494 µM).

With `COC1CCC(/N=c2\cc3n(-c4ccc(Cl)c(Cl)c4)c4cc(F)ccc4nc-3cc2Nc2ccc(C)nc2)CC1` (centres unmarked) [TBI-897, 7-Fluoro-5-(3,4-dichlorophenyl)-3-(4-methoxycyclohexyl)imino-2-(6-methyl-3-pyridyl)amino-3,5-dihydrophenazine], the MIC turned out to be 0.25 µg/mL (≈ 0.434 µM).

For `COc1ccc2nc3cc(Nc4ccc(C)nc4)/c(=N/C(C)C)cc-3n(-c3ccc(Cl)cc3)c2c1` [TBI-898], the MIC was found to be 0.25 µg/mL (≈ 0.517 µM).

On to `COc1ncccc1Nc1cc2nc3ccc(F)cc3n(-c3ccc(Cl)c(Cl)c3)c-2c/c1=N\C(C)C` [TBI-899, 7-Fluoro-5-(3,4-dichlorophenyl)-3-(1-methylethyl)imino-2-(2-methoxy-3-pyridyl)amino-3,5-dihydrophenazine], for which the MIC was 0.125 µg/mL (≈ 0.239 µM).

As for `Cc1ccc(Nc2cc3nc4ccccc4n(-c4ccc(F)cc4)c-3c/c2=N\C2CCOCC2)cn1` [TBI-900, 5-(4-Fluorophenyl)-3-(4-tetrahydropyranyl)imino-2-(6-methyl-3-pyridyl)amino-3,5-dihydrophenazine], the MIC turned out to be 0.125 µg/mL (≈ 0.261 µM).

Turning to `Cc1ccc(Nc2cc3nc4ccccc4n(-c4ccc(F)cc4)c-3c/c2=N\C2CCN(C)CC2)cn1` [TBI-901, 5-(4-Fluorophenyl)-3-(N-methyl-4-piperidyl)imino-2-(6-methyl-3-pyridyl)amino-3,5-dihydrophenazine], the MIC was determined as 0.102 µg/mL (≈ 0.207 µM).

Source of the values: patent US8716292B2, “Riminophenazines with 2-(heteroaryl)amino substituents and their anti-microbial activity” (priority 2010, dated 2014).
